The subject of experiment [1] is Serratia marcescens. The experiment can be described thus: Additional antimicrobial test (MIC). The experiment is classed as cell-based. Conditions: Gram −, NB, 22 ° C.
Experiment [2] has as its system Erwinia herbicola.
Experiment [3] concerns Erwinia chrysanthemi.
Experiment [4] has as its system Enterobacter aerogenes.
Experiment [5] relates to Erwinia carotovora atroseptica. The experiment can be described thus: Additional antimicrobial test (MIC). Conditions: Gram −, NB/BHI, 28/37 ° C. The experiment is classed as cell-based.

Structures are written as SMILES. In brackets after ≈: the same amount, converted by molar mass. Non-standard residues stand in square brackets, D forms with d. Residues, ends and D or L forms follow the SMILES beside them. βAla = NCCC(=O)O

One may read the MIC as the smallest concentration in the dilution series that meets the test's criterion for growth inhibition. A high value points to a less susceptible organism.

Take `CC[C@H](C)[C@H](NC(=O)[C@@H]1CCCN1C(=O)[C@H](CCCNC(=N)N)NC(=O)[C@@H]1CCCN1C(=O)[C@H](Cc1c[nH]cn1)NC(=O)[C@H](CO)NC(=O)[C@@H](NC(=O)[C@@H]1CCCN1C(=O)[C@H](CCCNC(=N)N)NC(=O)[C@@H]1CCCN1C(=O)[C@@H](NC(=O)[C@H](Cc1ccc(O)cc1)NC(=O)[C@@H]1CCCN1C(=O)[C@H](CCCNC(=N)N)NC(=O)[C@@H]1CCCN1C(=O)[C@H](CCCCN)NC(=O)CCN)[C@@H](C)O)[C@@H](C)O)C(=O)N[C@@H](CCCNC(=N)N)C(=O)N[C@H](C(=O)O)C(C)C` [Peptide 14, βAlaKPRP YTPRP TSHPR PIRV] (H-[βAla]KPRPYTPRPTSHPRPIRV-OH; N-terminus assumed): the MIC entry was “NI at ≦100 μM” in experiment [1]; 6.75 µM (≈ 15 µg/mL) in experiment [2]; 100 µM (≈ 223 µg/mL) in experiment [3]; 100 µM (≈ 223 µg/mL) in experiment [4]; “NI at ≦100 μM” in experiment [5].
Turning to `CC[C@H](C)[C@H](NC(=O)[C@@H]1CCCN1C(=O)[C@H](CCCNC(=N)N)NC(=O)[C@@H]1CCCN1C(=O)[C@H](Cc1c[nH]cn1)NC(=O)[C@H](CO)NC(=O)[C@@H](NC(=O)[C@@H]1CCCN1C(=O)[C@H](CCCNC(=N)N)NC(=O)[C@@H]1CCCN1C(=O)[C@@H](NC(=O)[C@H](Cc1ccc(O)cc1)NC(=O)[C@@H]1CCCN1C(=O)[C@H](CCCNC(=N)N)NC(=O)[C@@H]1CCCN1C(=O)[C@H](CCCCN)NC(=O)CN)[C@@H](C)O)[C@@H](C)O)C(=O)N[C@@H](CCCNC(=N)N)C(=O)N[C@H](C(=O)O)C(C)C` [Peptide 4, GKPRP YTPRP TSHPR PIRV] (H-GKPRPYTPRPTSHPRPIRV-OH; N-terminus assumed), the MIC entry in experiment [1] is “NI at ≦100 μM”; in experiment [2] it was 6.75 µM (≈ 14.9 µg/mL); in experiment [3] it was 50 µM (≈ 111 µg/mL); in experiment [4], 100 µM (≈ 221 µg/mL); in experiment [5] it was “NI at ≦100 μM”.
